In patent US8709999B2, “Substituted bicyclic HCV inhibitors” (Presidio Pharmaceuticals, Inc., priority 2009, dated 2014):

Tested on: HCV 1b_Huh-Luc/Neo-ET cell line (bicistronic genotype 1b replicon in Huh 7 cells)
Experiment: HCV replicon assay (luciferase readout)
Type: cell-based, HCV genotype 1b
Conditions: Hepatitis C virus, Huh-7, 72 h, read-out: Inhibition of HCB genotype 1b
Method: Biological activity of the compounds of the invention was determined using an HCV replicon assay. The HCV 1b_Huh-Luc/Neo-ET cell line persistently expressing a bicistronic genotype 1b replicon in Huh 7 cells was obtained from ReBLikon GMBH. This cell line was used to test compound inhibition using luciferase enzyme activity readout as a measurement of compound inhibition of replicon levels.
On Day 1 (the day after plating cells), each compound is added in triplicate to the cells. Plates are incubated for 72 h prior to determining luciferase levels. Enzyme activity was measured using a Bright-Glo Kit (cat. number E2620) manufactured by Promega Corporation. The following equation was used to generate a percent control value for each compound. % Control=(Compound Luciferase Level/Control Luciferase Level)*100
The EC50 value was determined using GraphPad Prism and the following equation: Y=Bottom asymptote+(Top asymptote−Bottom asymptote)/(1+10^((LogEC50−X)*HillSlope))
EC50 values of compounds are determined several times in the replicon assay to generate average EC50 values.

Row | SMILES | EC50
1 | COCCOc1cc(-c2cnc([C@@H]3CCCN3C(=O)[C@@H](NC(=O)OC)C(C)C)[nH]2)ccc1-c1ccc(-c2cnc([C@@H]3CCCN3C(=O)[C@@H](NC(=O)OC)C(C)C)[nH]2)cc1OCCOC [Compound 1] | < 1 nM
2 | COCCOc1c(-c2ccc(-c3cnc([C@@H]4CCCN4C(=O)[C@@H](NC(=O)OC)C(C)C)[nH]3)cc2)ccc(-c2cnc([C@@H]3CCCN3C(=O)[C@@H](NC(=O)OC)C(C)C)[nH]2)c1OCCOC [Compound 2] | < 1 nM
3 | CC[C@H](C)[C@H](NC(=O)OC)C(=O)N1CCC[C@H]1c1ncc(-c2ccc(-c3ccc(-c4cnc([C@@H]5CCCN5C(=O)[C@@H](NC(=O)OC)[C@@H](C)CC)[nH]4)c(OCCOC)c3OCCOC)cc2)[nH]1 [Compound 3] | < 1 nM
4 | COCCOc1c(-c2ccc(-c3cnc([C@@H]4CCCN4C(=O)[C@@H](NC(=O)OC)C4CCCC4)[nH]3)cc2)ccc(-c2cnc([C@@H]3CCCN3C(=O)[C@@H](NC(=O)OC)C3CCCC3)[nH]2)c1OCCOC [Compound 4] | < 1 nM
5 | COCCOc1cc(-c2cnc([C@@H]3CCCN3C(=O)[C@H](C)NC(=O)OC)[nH]2)ccc1-c1ccc(-c2cnc([C@@H]3CCCN3C(=O)[C@H](C)NC(=O)OC)[nH]2)cc1OCCOC [Compound 6] | 10 to 999 nM
6 | CC[C@H](C)[C@H](NC(=O)OC)C(=O)N1CCC[C@H]1c1ncc(-c2ccc(-c3ccc(-c4cnc([C@@H]5CCCN5C(=O)[C@@H](NC(=O)OC)[C@@H](C)CC)[nH]4)cc3OCCOC)c(OCCOC)c2)[nH]1 [Compound 7] | < 1 nM
7 | COCCOc1cc(-c2cnc([C@@H]3CCCN3C(=O)[C@@H](NC(=O)OC)C3CCCC3)[nH]2)ccc1-c1ccc(-c2cnc([C@@H]3CCCN3C(=O)[C@@H](NC(=O)OC)C3CCCC3)[nH]2)cc1OCCOC [Compound 8] | < 1 nM
8 | COCCOc1cc(-c2cnc([C@@H]3CCCN3C(=O)[C@@H](NC(=O)OC)C3CCCCC3)[nH]2)ccc1-c1ccc(-c2cnc([C@@H]3CCCN3C(=O)[C@@H](NC(=O)OC)C3CCCCC3)[nH]2)cc1OCCOC [Compound 9] | < 1 nM
9 | COCCOc1c(-c2ccc(-c3cnc([C@@H]4CCCN4C(=O)[C@H](C)NC(=O)OC)[nH]3)cc2)ccc(-c2cnc([C@@H]3CCCN3C(=O)[C@H](C)NC(=O)OC)[nH]2)c1OCCOC [Compound 10] | < 1 nM
10 | COCCOc1c(-c2ccc(-c3cnc([C@@H]4CCCN4C(=O)[C@H](COC)NC(=O)OC)[nH]3)cc2)ccc(-c2cnc([C@@H]3CCCN3C(=O)[C@H](COC)NC(=O)OC)[nH]2)c1OCCOC [Compound 11] | 10 to 999 nM
11 | COCCOc1c(-c2ccc(-c3cnc([C@@H]4CCCN4C(=O)[C@@H](NC(=O)OC)[C@@H](C)OC)[nH]3)cc2)ccc(-c2cnc([C@@H]3CCCN3C(=O)[C@@H](NC(=O)OC)[C@@H](C)OC)[nH]2)c1OCCOC [Compound 12] | 1 to 9.9 nM
12 | COCCOc1c(-c2ccc(-c3cnc([C@@H]4CCCN4C(=O)[C@@H](NC(=O)OC)C(C)(C)C)[nH]3)cc2)ccc(-c2cnc([C@@H]3CCCN3C(=O)[C@@H](NC(=O)OC)C(C)(C)C)[nH]2)c1OCCOC [Compound 13] | 1 to 9.9 nM
13 | COCCOc1c(-c2ccc(-c3cnc([C@@H]4CCCN4C(=O)[C@@H](NC(=O)OC)C4CCOCC4)[nH]3)cc2)ccc(-c2cnc([C@@H]3CCCN3C(=O)[C@@H](NC(=O)OC)C3CCOCC3)[nH]2)c1OCCOC [Compound 14] | 1 to 9.9 nM
14 | COCCOc1c(-c2ccc(-c3cnc([C@@H]4CCCN4C(=O)[C@@H](c4ccccc4)N(C)C)[nH]3)cc2)ccc(-c2cnc([C@@H]3CCCN3C(=O)[C@@H](c3ccccc3)N(C)C)[nH]2)c1OCCOC [Compound 15] | < 1 nM
15 | COCCOc1c(-c2ccc(-c3cnc([C@@H]4CCCN4C(=O)[C@@H](c4ccccc4)N4CCCC4)[nH]3)cc2)ccc(-c2cnc([C@@H]3CCCN3C(=O)[C@@H](c3ccccc3)N3CCCC3)[nH]2)c1OCCOC [Compound 16] | 1 to 9.9 nM
16 | COCCOc1c(-c2ccc(-c3cnc([C@@H]4CCCN4C(=O)[C@H](NS(C)(=O)=O)c4ccccc4)[nH]3)cc2)ccc(-c2cnc([C@@H]3CCCN3C(=O)[C@H](NS(C)(=O)=O)c3ccccc3)[nH]2)c1OCCOC [Compound 17] | < 1 nM
17 | COCCOc1c(-c2ccc(-c3cnc([C@@H]4CCCN4C(=O)[C@@H](NC(=O)OC)C(C)C)[nH]3)cc2)ccc(-c2cnc([C@@H]3CCCN3C(=O)[C@H](C)NC(=O)OC)[nH]2)c1OCCOC [Compound 18] | 1 to 9.9 nM
18 | CC[C@H](C)[C@H](NC(=O)OC)C(=O)N1CCC[C@H]1c1ncc(-c2ccc(-c3ccc(-c4cnc([C@@H]5CCCN5C(=O)[C@@H](NC(=O)OC)C(C)C)[nH]4)cc3)c(OCCOC)c2OCCOC)[nH]1 [Compound 19] | < 1 nM
